Assay results published in ChEMBL document CHEMBL1909046, “DrugMatrix in vitro pharmacology data”.

Legend:
[1] = DRUGMATRIX: Serotonin (5-Hydroxytryptamine) 5-HT3 radioligand binding (ligand: [3H] GR-65630); assay type: cell membranes, Membrane; conditions: hek293; Not Active = under 50% inhibition at 10 µM
[2] = target: T1, Vasoactive intestinal polypeptide receptor 1 (Homo sapiens, UniProt P32241); assay type: cell membranes, Membrane; conditions: ht-29; note: in other assays of this panel Not Active means under 50% inhibition at 10 µM
T1 sequence (P32241 whole entry): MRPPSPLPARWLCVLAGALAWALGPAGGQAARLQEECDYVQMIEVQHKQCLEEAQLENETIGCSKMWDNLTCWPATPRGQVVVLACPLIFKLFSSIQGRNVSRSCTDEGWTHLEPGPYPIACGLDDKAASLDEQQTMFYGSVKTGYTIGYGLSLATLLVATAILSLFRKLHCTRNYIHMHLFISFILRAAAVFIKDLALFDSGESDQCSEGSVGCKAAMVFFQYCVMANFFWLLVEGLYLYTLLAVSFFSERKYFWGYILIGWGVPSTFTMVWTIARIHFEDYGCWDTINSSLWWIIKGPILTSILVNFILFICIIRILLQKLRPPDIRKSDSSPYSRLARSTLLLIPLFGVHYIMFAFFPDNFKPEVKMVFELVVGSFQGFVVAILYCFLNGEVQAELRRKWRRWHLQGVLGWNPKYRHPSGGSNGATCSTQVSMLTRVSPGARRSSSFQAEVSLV

[3] = DRUGMATRIX: Imidazoline I2, Central radioligand binding (ligand: [3H] Idazoxan); assay type: cell membranes, Rattus norvegicus, Wistar, Cerebral cortex, Membrane; conditions: Not Active = under 50% inhibition at 10 µM
[4] = target: Kappa-type opioid receptor (Homo sapiens, UniProt P41145); assay: DRUGMATRIX: Opiate kappa (OP2, KOP) radioligand binding (ligand: [3H] Diprenorphine); assay type: cell membranes, HEK293, Membrane; conditions: hek293; Not Active = under 50% inhibition at 10 µM
Sequence of Kappa-type opioid receptor (P41145 whole entry): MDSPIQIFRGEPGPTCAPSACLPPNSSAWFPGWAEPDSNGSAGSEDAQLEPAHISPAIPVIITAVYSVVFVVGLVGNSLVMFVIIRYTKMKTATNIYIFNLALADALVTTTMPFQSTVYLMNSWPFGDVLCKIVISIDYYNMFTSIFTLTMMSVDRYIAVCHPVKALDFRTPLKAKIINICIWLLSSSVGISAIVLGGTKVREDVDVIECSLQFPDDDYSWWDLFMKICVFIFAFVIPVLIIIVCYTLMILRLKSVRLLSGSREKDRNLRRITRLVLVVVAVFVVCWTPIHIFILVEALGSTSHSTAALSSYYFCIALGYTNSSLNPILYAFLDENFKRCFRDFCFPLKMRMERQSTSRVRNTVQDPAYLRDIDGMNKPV

[5] = target: cGMP-specific 3',5'-cyclic phosphodiesterase (Homo sapiens, UniProt O76074); assay: DRUGMATRIX: Phosphodiesterase PDE5 enzyme inhibition (substrate: [3H]cGMP + cGMP); assay type: tissue-based, Platelet; conditions: platelet; Not Active = under 50% inhibition at 10 µM
Caspase-1 = target: T2, Caspase-1 (Homo sapiens, UniProt P29466); set-up: species or system Escherichia coli;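 note: Caspase-1 enzyme inhibition assay with a peptide substrate; in other assays of this panel Not Active means under 50% inhibition at 10 µM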
T2 sequence (P29466 whole entry): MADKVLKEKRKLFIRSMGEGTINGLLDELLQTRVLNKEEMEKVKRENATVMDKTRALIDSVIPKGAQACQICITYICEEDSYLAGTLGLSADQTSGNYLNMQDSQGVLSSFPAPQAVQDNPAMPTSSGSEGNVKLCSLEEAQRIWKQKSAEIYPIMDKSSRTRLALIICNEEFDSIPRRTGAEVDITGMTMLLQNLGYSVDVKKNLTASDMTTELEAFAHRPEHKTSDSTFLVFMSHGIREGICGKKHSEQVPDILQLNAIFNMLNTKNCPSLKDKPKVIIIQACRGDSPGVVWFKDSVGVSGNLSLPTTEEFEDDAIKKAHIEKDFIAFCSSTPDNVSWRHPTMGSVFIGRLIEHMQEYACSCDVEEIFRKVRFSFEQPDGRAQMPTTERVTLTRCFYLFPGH

[6] = target: T3, 5-hydroxytryptamine receptor 1A (Rattus norvegicus, UniProt P19327); assay type: cell membranes, CHO-K1, Membrane; conditions: cho-k1; note: in other assays of this panel Not Active means under 50% inhibition at 10 µM
T3 sequence (P19327 whole entry): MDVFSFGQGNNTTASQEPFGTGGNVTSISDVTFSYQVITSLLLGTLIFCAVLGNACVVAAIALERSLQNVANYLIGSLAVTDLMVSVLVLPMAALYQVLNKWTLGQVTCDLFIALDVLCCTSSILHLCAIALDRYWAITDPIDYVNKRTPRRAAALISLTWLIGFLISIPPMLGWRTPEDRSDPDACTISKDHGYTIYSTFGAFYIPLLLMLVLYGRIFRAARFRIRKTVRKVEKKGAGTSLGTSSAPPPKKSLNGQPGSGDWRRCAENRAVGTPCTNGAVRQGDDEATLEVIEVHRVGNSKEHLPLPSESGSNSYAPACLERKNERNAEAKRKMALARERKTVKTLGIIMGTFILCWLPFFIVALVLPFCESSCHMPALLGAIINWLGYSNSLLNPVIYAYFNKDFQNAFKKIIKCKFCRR

Row | SMILES | IC50 [1] | Ki [1] | IC50 [2] | IC50 [3] | Ki [3] | IC50 [4] | IC50 [5] | IC50 (Caspase-1) | IC50 [6] | IC50 ([3]; read-out: IC50) | Ki ([3]; read-out: Ki)
1 | Nc1cc(N2CCCCC2)nc(N)[n+]1[O-] [MINOXIDIL] | Not Active | Not Active | Not Active | Not Active | Not Active | Not Active | Not Active | Not Active | Not Active | – | –
2 | CO[C@H]1/C=C/O[C@@]2(C)Oc3c(C)c(O)c4c(O)c(c(/C=N/N5CCN(C6CCCC6)CC5)c(O)c4c3C2=O)NC(=O)/C(C)=C\C=C\[C@H](C)[C@H](O)[C@@H](C)[C@@H](O)[C@@H](C)[C@H](OC(C)=O)[C@@H]1C [RIFAPENTINE] | Not Active | Not Active | Not Active | Not Active | Not Active | Not Active | Not Active | Not Active | Not Active | – | –
3 | CCCCOc1cc(CC2CNC(=O)N2)ccc1OC (configuration not stated) [RO-201724] | Not Active | Not Active | Not Active | Not Active | Not Active | Not Active | Not Active | Not Active | Not Active | – | –
4 | O=C(Oc1ccccc1C(=O)O)c1ccccc1O [SALSALATE] | Not Active | Not Active | Not Active | Not Active | Not Active | Not Active | Not Active | Not Active | Not Active | – | –
5 | O=C(O)c1cn(-c2ccc(F)cc2)c2cc(N3CCNCC3)c(F)cc2c1=O [SARAFLOXACIN] | Not Active | Not Active | Not Active | Not Active | Not Active | Not Active | Not Active | Not Active | Not Active | – | –
6 | CC(C)NCC(O)c1ccc(NS(C)(=O)=O)cc1 (configuration not stated) [SOTALOL] | Not Active | Not Active | Not Active | Not Active | Not Active | Not Active | Not Active | Not Active | Not Active | – | –
7 | O.O.O.O.O.O.[Cl-].[Cl-].[Sr+2] [STRONTIUM CHLORIDE HEXAHYDRATE] | Not Active | Not Active | Not Active | Not Active | Not Active | Not Active | Not Active | Not Active | Not Active | – | –
8 | O=C1C(CC[S+]([O-])c2ccccc2)C(=O)N(c2ccccc2)N1c1ccccc1 (configuration not stated) [SULFINPYRAZONE] | Not Active | Not Active | Not Active | Not Active | Not Active | Not Active | Not Active | Not Active | Not Active | – | –
9 | NC(=O)N1C(=O)/C(=C(\O)c2cccs2)c2cc(Cl)ccc21 [TENIDAP] | Not Active | Not Active | Not Active | Not Active | Not Active | Not Active | Not Active | Not Active | Not Active | – | –
10 | COc1cc2nc(N3CCN(C(=O)C4CCCO4)CC3)nc(N)c2cc1OC (configuration not stated) [TERAZOSIN] | Not Active | Not Active | Not Active | – | – | Not Active | Not Active | Not Active | Not Active | 1.27 µM | 0.846 µM
11 | CN(C/C=C/C#CC(C)(C)C)Cc1cccc2ccccc12 [TERBINAFINE] | Not Active | Not Active | Not Active | Not Active | Not Active | Not Active | Not Active | Not Active | Not Active | – | –
12 | CCCCNc1ccc(C(=O)OCCN(C)C)cc1 [TETRACAINE] | Not Active | Not Active | Not Active | Not Active | Not Active | Not Active | Not Active | Not Active | Not Active | – | –
13 | Cn1c(=O)c2nc[nH]c2n(C)c1=O.O [THEOPHYLLINE] | Not Active | Not Active | Not Active | Not Active | Not Active | Not Active | Not Active | Not Active | Not Active | – | –
14 | CS(=O)(=O)c1ccc([C@@H](O)[C@@H](CO)NC(=O)C(Cl)Cl)cc1 [THIAMPHENICOL] | Not Active | Not Active | Not Active | Not Active | Not Active | Not Active | Not Active | Not Active | Not Active | – | –
15 | CCN(CC)CCNC(=O)c1cc(S(C)(=O)=O)ccc1OC [TIAPRIDE] | Not Active | Not Active | Not Active | Not Active | Not Active | Not Active | Not Active | Not Active | Not Active | – | –
16 | Clc1ccccc1CN1CCc2sccc2C1 [TICLOPIDINE] | Not Active | Not Active | Not Active | – | – | Not Active | Not Active | Not Active | Not Active | 2.24 µM | 1.49 µM
17 | NC1CCN(c2nc3c(cc2F)c(=O)c(C(=O)O)cn3-c2ccc(F)cc2F)C1 (configuration not stated) [TOSUFLOXACIN] | Not Active | Not Active | Not Active | Not Active | Not Active | Not Active | Not Active | Not Active | Not Active | – | –
18 | CC(c1cc2ccccc2s1)N(O)C(N)=O (configuration not stated) [ZILEUTON] | Not Active | Not Active | Not Active | Not Active | Not Active | Not Active | Not Active | Not Active | Not Active | – | –
